Values of other authors, collected in patent US20030232784A1, “Hyaluronic acid-associated superoxide dismutase mimics and their use in the treatment of joint pain” (priority 2002, published 2003).

System: patients with active classical rheumatoid arthritis

Orgotein®: a bovine SOD with a Cu/Zn catalytic site
effect on rheumatoid arthritis symptoms (intraarticular injection, patients with active classical rheumatoid arthritis): ameliorated a number of symptoms
immunogenicity (reason for removal from the market): development of immune responses against the bovine enzyme
